According to patent US12410174B1, “Small molecular inhibitors of sting signaling compositions and methods of use” (TYERELL IMMUNOTHERAPEUTICS INC, priority 2020, dated 2025):
“Also recorded” adds a separate entry of the source.

How the values were obtained:
STING signaling [1] = test: qPCR of Cxcl10 / Cxcl5 in MEF cells after ISD transfection; assay type: cell-based, murine
Procedure: MEFs were obtained from E13.5 embryos by a standard procedure. Bone Marrow Derived Macro-phages (BMDM) were isolated from hind-limb femurs of 8-10 weeks old WT and Trex1 KO (TKO) mice. The hematopoietic cells from the bone marrow were cultured in complete DMEM (Invitrogen) including 10 ng/ml of Mouse Recombinant Colony-Stimulating Factor (M-CSF, R&D Systems) for 10 to 14 days.
(§1) Example 11: qPCR total RNA were reverse-transcribed using M-MLV Reverse Transcriptase (Promega). Real-time PCR was performed using Taqman Gene Expression Assay (Applied Biosystems) for innate immune genes and inflammatory cytokines.

STING signaling [2] = test: Luciferase live cell assay, type I IFN promoter in hTERT-pIFNβ-Glu cells after ISD transfection; assay type: cell-based, human; conditions: for inhibitory activity of the type I IFN promoter (luciferase induction): hTERT-pIFNβ-Glu cells, 50 μM or 25 μM, in response to ISD; for criteria to inhibit STING dependent signaling (type I IFN promoter in human cells): test of the 25 novel analogs
Procedure: Inhibition of IFNβ expression was measured by Luciferase induction at 24 hours after transfection of ISD, Mock is shown (210), ISD treatment only (220) was used as a control, according to an embodiment of the invention;
Example 1: Identification of small molecule antagonists of STING. In the presence of cytosolic DNA species, STING becomes activated to drive the transcription of cytokines such as type I IFN. Compounds binding to STING via TSA were subsequently examined for their ability to prevent cytosolic DNA species from activating the type I interferon (IFN) promoter, using a live cell assay. This assay comprised immortalized human fibroblasts that were stably transfected with the type I IFN promoter driving luciferase as well as the CMV promoter driving SEAP (hTERT-pIFNβ-Glu). The live cell assay has previously been disclosed in PCT/JS2019/025380 entitled IFN-βETA REPORTER SYSTEM FOR IMMORTALIZED PRIMARY CELLS inventor Glen N. Barber, which was filed Apr. 2, 2018 and published as WO2019195285, and which is herein incorporated by reference in its entirety and for all purposes. The ability of the small molecules to prevent activation of the type I IFN promoter and the transcription of luciferase, but not SEAP in response to cytosolic DNA species was assessed. The activation of STING, typically by CDNs, in turn activates the transcription factors NF-κB and IRF3, both of which are required to induce the transcriptional stimulation of the Type I IFN promoter, but not the CMV promoter as IRF3 and NF-kB transcription factor binding sites are not contained in the CMV promoter. The assay identified the small molecule Compound Y1 in the first screen (HTS), where the level of luciferase was not able to activate the type I IFN promoter or induce the expression of luciferase (see Table I).
Example 4: hTERT-BJ1 Telomerase Fibroblasts (hTERT) were originally purchased from Clontech and were cultured in 4:1 ratio of DMEM:Medium 199 supplement with 10% FBS, 4 mM L-Glutamine and 1 mM sodium pyruvate at 37° C. in a 5% CO2-humidified atmosphere. hTERT-BJ1 Telomerase Fibroblasts stably expressing the luciferase gene under the control of the interferon-beta promoter and SEAP gene under control of the CMV promoter) (hTERT-pIFNβ-Glu) were generated by the Barber laboratory.
Example 7: Luciferase assay: hTERT-BJ1 Telomerase Fibroblasts stably expressing the luciferase gene under the control of the interferon-beta promoter and SEAP gene under control of the CMV promoter) (hTERT-pIFNβ-Glu) were generated by the Barber laboratory. Luciferase assay was performed using Secrete-Pair Dual Luminescence Assay Kit from GeneCopoeia following the manufacturer's protocol.

STING signaling [3] = test: qPCR of IFNβ1 / Cxcl10 in normal hTERT cells after ISD transfection; assay type: cell-based, human; conditions: normal hTERT cells stimulated with ISD; 50 μM, 25 μM or 5 μM
Procedure: as §1

STING signaling [4] = test: Western blot of STING, TBK1 and IRF3 phosphorylation in MEF cells; assay type: cell-based, murine; conditions: cytosolic DNA
Procedure: Example 8: Immunoblot analysis: Equal amounts of proteins were resolved on sodium dodecyl sulfate (SDS)-Polyacrylamide gels and then transferred to polyvinylidene fluoride (PVDF) membranes (Millipore). After blocking with 5% Blocking Reagent, membranes were incubated with various primary antibodies (and appropriate secondary antibodies). The image was resolved using an enhanced chemiluminescence system ECL (Thermo Scientific) and detected by autoradiography (Kodak). Antibodies: rabbit polyclonal antibody against STING was developed in our laboratory as described previously in Ishikawa et al, 2008; other antibodies were obtained from following sources: β-actin (Sigma Aldrich), p-IRF3 (Cell Signaling), IRF3 (Santa Cruz Biotechnology), p-p65 (Cell Signaling), p65 (Cell Signaling), p-TBK1 (Cell Signaling), TBK1 (Abcam), cGAS (Cell Signaling).

STING signaling [5] = test: Confocal analysis of STING trafficking and IRF3 translocation in hTERT cells; assay type: cell-based, human; conditions: 6 hours after ISD transfection
Procedure: FIG. 2E are photographs showing confocal analysis of STING trafficking using anti-Sting performed at 6 hours after ISD transfection with Y1+220/without 220, Mock is shown (210), ISD treatment only (220) was used as control, treatment same as in FIG. 2A, according to an embodiment of the invention;
Example 10: Immunofluorescence Microscopy: Cells were cultured and treated in their appropriate media on Lab-Tek II chamber slides. Cell were fixed with 4% paraformaldehyde for 15 minutes in at 37° C. and permeabilized with 0.05% Triton X-100 for 5 minutes at room temperature. Immunostaining was performed with rabbit-anti-STING polyclonal, rabbit-anti-IRF3 (Santa Cruz Biotechnology) or rabbit-anti-p65 (Cell Signaling) followed by fluorescence conjugated secondary antibodies (FITC-goat-anti-rabbit) (Invitrogen).

TREX1-deficient mice = test: Treatment of TREX1 knockout (TKO) mice: survival and heart histopathology; assay type: in vivo, mouse
Procedure: Example 12: Mouse Treatment: Trex1 Hetero knockout mice (Trex1^+/−) were generated by crossing the hetero mice. Mouse genotypes from tail biopsies were determined using Real Time PCR with specific probes designed for each gene by commercial vendor (Transnetyx). Trex1 KO (TKO) mice (4-5 weeks old) were intraperitoneally injected with 25 μg Z811 per mouse in 200 μL 1% DMSO in PBS. The mice were injected three times a week for 5 months. The survival rates were evaluated.
Example 13: Histopathology. Mice are sacrificed and the heart tissues were fixed in 10% formalin for 48 hours.

| SMILES | Cxcl10 production in response to ISD (qPCR) (STING signaling [1]) | inhibitory activity of the type I IFN promoter (luciferase induction) (STING signaling [2]) | criteria to inhibit STING dependent signaling (type I IFN promoter in human cells) (STING signaling [2]) | production of STING-inducible cytokine Cxcl10 (qPCR) (STING signaling [3]) | phosphorylation of TBK1, IRF3 and STING (Western blot) (STING signaling [4]) | IRF3 translocation (confocal analysis) (STING signaling [5]) | STING trafficking (confocal analysis) (STING signaling [5]) | inflammation in the heart (H&E staining) (TREX1-deficient mice) | survival of TREX1-deficient mice (TREX1-deficient mice; intraperitoneal, 25 μg/mouse, 5 months, compared to mock treated) |
| --- | --- | --- | --- | --- | --- | --- | --- | --- | --- |
| N#Cc1c(NC(=O)c2cccc(Cl)c2Cl)n(CCc2ccccc2)c2nc3ccccc3nc12 [Compound Y8, 2,3-dichloro-N-[3-cyano-1-(2-phenylethyl)-1H-pyrrolo[2,3-b]quinoxalin-2-yl]benzamide] | impede the production of Cxcl10 | showed robust inhibitory activity of the type I IFN promoter | found to meet the criteria to inhibit STING dependent signaling; also recorded: found to meet the criteria to inhibit STING dependent signaling and showed the most effective inhibitory activity | robustly inhibited | can prevent the phosphorylation of TBK1 and IRF3 as well as STING phosphorylation | reproducibly prevented STING trafficking and IRF3 phosphorylation | reproducibly prevented STING trafficking and IRF3 phosphorylation |  |  |
| Cc1cccc(C(=O)Nc2c(C#N)c3nc4ccccc4nc3n2CCc2ccccc2)c1Cl [Compound Y9, 2-chloro-N-[3-cyano-1-(2-phenylethyl)-1H-pyrrolo [2,3-β]quinoxalin-2-yl]-3-methylbenzamide] | impede the production of Cxcl10 | showed robust inhibitory activity of the type I IFN promoter | found to meet the criteria to inhibit STING dependent signaling; also recorded: found to meet the criteria to inhibit STING dependent signaling and showed the most effective inhibitory activity | robustly inhibited | can prevent the phosphorylation of TBK1 and IRF3 as well as STING phosphorylation | reproducibly prevented STING trafficking and IRF3 phosphorylation | reproducibly prevented STING trafficking and IRF3 phosphorylation | Less inflammation in the heart | extend the survival of TREX1-deficient mice |
| N#Cc1c(NC(=O)c2cccc(F)c2Cl)n(CCc2ccccc2)c2nc3ccccc3nc12 [Compound Y5, 2-chloro-N-[3-cyano-1-(2-phenylethyl)-1H-pyrrolo [2,3-b]quinoxalin-2-yl]-3-floorobenzamide] |  | showed robust inhibitory activity of the type I IFN promoter | found to meet the criteria to inhibit STING dependent signaling; also recorded: found to meet the criteria to inhibit STING dependent signaling and showed the most effective inhibitory activity | robustly inhibited |  |  |  |  |  |
| N#Cc1c(NC(=O)c2ccccc2Cl)n(CCOc2ccccc2)c2nc3ccccc3nc12 [Compound Y2, 2-chloro-N-[3-cyano-1-(2-phenoxyethyl)-1H-pyrrolo [2,3-b]quinoxalin-2-yl] benzamide] |  |  | found to meet the criteria to inhibit STING dependent signaling; also recorded: found to meet the criteria to inhibit STING dependent signaling and showed the most effective inhibitory activity |  |  |  |  |  |  |
| Cc1ccc(Cl)c(C(=O)Nc2c(C#N)c3nc4ccccc4nc3n2CCc2ccccc2)c1 [Compound Y4, 2-chloro-N-[3-cyano-1-(2-phenylethyl)-1H-pyrrolo [2,3-b]quinoxalin-2-yl]-5-methylbenzamide] | impede the production of Cxcl10 | showed robust inhibitory activity of the type I IFN promoter | found to meet the criteria to inhibit STING dependent signaling; also recorded: found to meet the criteria to inhibit STING dependent signaling and showed the most effective inhibitory activity | robustly inhibited | can prevent the phosphorylation of TBK1 and IRF3 as well as STING phosphorylation | reproducibly prevented STING trafficking and IRF3 phosphorylation | reproducibly prevented STING trafficking and IRF3 phosphorylation |  |  |
| COCCn1c(NC(=O)c2ccccc2Cl)c(C#N)c2nc3ccccc3nc21 [Compound Y3, 2-chloro-N-[3-cyano-1-(2-methoxyethyl)-1H-pyrrolo [2,3-ß]iquinoxalin-2-yl] benzamide] |  |  | found to meet the criteria to inhibit STING dependent signaling; also recorded: found to meet the criteria to inhibit STING dependent signaling and showed the most effective inhibitory activity |  |  |  |  |  |  |
| N#Cc1c(NC(=O)c2ccccc2Cl)n(CCc2cccc(F)c2)c2nc3ccccc3nc12 [Compound Y7, 2-chloro-N-{3-cyano-1-[2-(3-fluorophenyl)ethyl]-1H-pyrrolo[2,3-b]quinoxalin-2-yl}benzamide] |  | showed robust inhibitory activity of the type I IFN promoter | found to meet the criteria to inhibit STING dependent signaling; also recorded: found to meet the criteria to inhibit STING dependent signaling and showed the most effective inhibitory activity | robustly inhibited |  |  |  |  |  |
| N#Cc1c(NC(=O)c2c(F)cccc2Cl)n(CCc2ccccc2)c2nc3ccccc3nc12 [Compound Y6, 2-chloro-N-[3-cyano-1-(2-phenylethyl)-1H-pyrrolo [2,3-b]quinoxalin-2-yl]-6-fluorobenzamide] |  | showed robust inhibitory activity of the type I IFN promoter | found to meet the criteria to inhibit STING dependent signaling; also recorded: found to meet the criteria to inhibit STING dependent signaling and showed the most effective inhibitory activity | robustly inhibited |  |  |  |  |  |
